Reference: US4281009A, “Hydantoin derivatives” (Nippon Zoki Pharmaceutical Co., Ltd., priority 1978, dated 1981)

Key:
[1] = tested on: isolated duodenum; test: Recovery of acetylcholine sensitivity of isolated duodenum of SART stress mice (Magnus method); format: in vivo, mice (dd-strain male); conditions: 6th day, Ach 10^-7 g/ml, Average ± S.E.
Excerpt: (§1) SART stress animals used in the tests described below were raised according to a method of Kita, et al. [Folia Pharmacol. Japan.: 71, 195-210 (1975)].
3. Effect of recovering acetylcholine (Ach) sensitivity of isolated intestinal tract:
Groups each comprising at least 10 dd-strain male mice were used. The compounds of the present invention or other comparative drugs were given intraperitoneally once a day during the stress-causing operation. On the 6th day, Ach (10^-7 g/ml.) sensitivity of isolated duodenum was examined using the Magnus method.

[2] = tested on: Wistar-strain male rats; test: Antiulcerogenic effect on Shay's ulcer (operative ulcer); format: in vivo; conditions: 150 mg/kg intraperitoneal, 10 times
Method: 6.2. Antiulcerogenic effect on Shay's ulcer (operative ulcer):
Tests were carried out by using groups of rats each comprising 5-10 Wistar-strain male rats according to Shay method [Shay Harry; Gastroenterology,; 5, 43 (1945)]. Ulcers in the anterior stomach were classified on the following basis:
2. 1-5 small ulcers (diameter of less than 3 mm)
3. 6 or more small ulcers or one big ulcer (diameter of more than 3 mm)
4. two or more big ulcers

[3] = tested on: normal mice and SART stress mice; test: Analgesic effect, D'Amour-Smith method; format: in vivo, mice (ddY-strain male); conditions: Mus musculus, ip, intraperitoneal 100 mg/kg
Method: 5.3. D'Amour-Smith method:
Groups each comprising 10 ddY-strain male normal mice and SART stress mice to which SART stress had been applied for 4 days were used. The root of the tail of the mouse to which black ink was applied was irradiated with infrared rays for up to 15 seconds. Time required till escape response was observed was measured. The effect was shown by the ratio of the mice in which an average value of the response time at 30, 60, 90 and 120 minutes after the administration of the compounds of the present invention or other comparative drugs was prolonged to at least 2 times as long as the time before the administration.

[4] = Acute toxicity test (LD50, Litchfield-Wilcoxon), rats; conditions: rat, in vivo, ip, intraperitoneal
Method: (§2) Toxicity tests were carried out by intraperitoneal administration of the compound of the present invention to groups each comprising 10 ICR-strain mice and SD-strain rats. LD50 was calculated by the Litchfield-Wilcoxon method based on the number of death 72 hours after the administration.

[5] = tested on: ddY-strain male mice; test: Effect of prolongation of sleeping time (hexobarbital); format: in vivo; conditions: for change in vivo at 100 mg/kg / change in vivo at 300 mg/kg: Mus musculus, ip; for change in vivo at 100 mg/kg: 100 mg/kg intraperitoneal; for change in vivo at 300 mg/kg: 300 mg/kg intraperitoneal
Method: 7. Effect of prolongation of sleeping time:
Groups of mice each comprising 10 ddY-strain male mice were used. Sodium salt of hexobarbital was given intraperitoneally. Thereafter, the period of time in which righting reflex disappeared was measured. The effect was evaluated on the basis of prolongation of time of disappearance of righting reflex by the intraperitoneal administration of the compounds of the present invention as compared with control mice.

[6] = tested on: normal mice and SART stress mice; test: Analgesic effect, tail pressure method (Randall-Selitto's device); format: in vivo, mice (ddY-strain male); conditions: 60 minutes; for change in vivo at 100 mg/kg: Mus musculus, ip, 1 h, intraperitoneal 100 mg/kg; for Analgesic effect: intraperitoneal 50 mg/kg
Method: 5.1 Tail pressure method:
Randall-Selitto's device for determining analgesic effect by pressure stimulation was used. […]. The compounds of the present invention or other comparative drugs were given thereto and analgesic effect was determined. The effect was judged by measuring pressure applied 60 minutes after the intraperitoneal administration of the compounds of the present invention. The pressure thus measured was divided by a pressure before the administration. The value thus obtained was compared with that of a control group (to which 10 ml./Kg of 0.5% sodium salt of carboxymethylcellulose or 0.5% Tween 80 was given). When the compounds of the present invention were given perorally and other comparative drugs were given, an average of the pressure at 30, 60, 90 and 120 minutes after the administration was employed for evaluating the effect.

[7] = tested on: dd-strain male mice; test: Antiulcerogenic effect on Takagi's restraint-plus-water-immersing ulcer; format: in vivo; conditions: Mus musculus, ip; 150 mg/kg intraperitoneal
Method: 6.1 Antiulcerogenic effect on Takagi's restraint-plus-water-immersing ulcer: Groups each comprising 8-26 dd-strain male mice were used. The tests were carried out according to a method of Takagi, et al. [Chem. Pharm. Bull.; 12, 465 (1964)]. Sum of length of diseased parts in the glandular stomach was measured and it was compared with that of control group. The compounds of the present invention or DPH was given intraperitoneally immediately before the restraint and immersion in water.

[8] = Acute toxicity test (LD50, Litchfield-Wilcoxon), mice; conditions: mouse, in vivo, ip, intraperitoneal
Method: as §2

[9] = tested on: normal rats and SART stress rats; test: Analgesic effect, pain induced by Bradykinin; format: in vivo, rats (SD-strain male); conditions: intraperitoneal 100 mg/kg
Method: 5.4 Method of measuring a pain induced by Bradykinin:
Groups each comprising 4-8 SD-strain male normal rats and SART stress rats to which SART stress had been applied for 4 days were used. The tests were carried out according to the method of Deffenu et al. [Deffenu, G., Pegrassi, L., & Fumachi. B.; J. Pharm. Pharmacol.; 18, 135 (1966)] and Blane method [Blane, G. F.; J. Pharm. Pharmacol.; 19, 367 (1967)]. The effect judged was shown by ratio of the rats in which the effect was recognized according to the method of Abe, et al. [Abe, Kaneko & Takagi; Folia Pharmacol. Japon.; 67, 9-14 (1971)].

[10] = tested on: dd-strain male mice; test: Inhibitory effect on Tremorine-induced tremor; format: in vivo; conditions: 100 mg/kg intraperitoneal; tremorine 10 mg/Kg
Method: 9. Inhibitory effect on Tremorine-induced tremor:
Groups of mice each comprising 10-40 dd-strain male mice were used. Effect of the compounds of the present invention on tremor caused by tremorine was examined. The compounds of the present invention or DPH was given intraperitoneally. 45 minutes thereafter, 10 mg/Kg of tremorine was given intraperitoneally for inducing the tremor.

[11] = tested on: normal mice and SART stress mice; test: Analgesic effect, acetic acid writhing method; format: in vivo; conditions: Mus musculus, sc, 100 mg/Kg subcutaneously
Method: 5.2. Acetic acid writhing method: 0.1 ml./10 g of isotonic sodium chloride solution containing 0.7% acetic acid was given intraperitoneally to groups of mice each comprising 5 normal mice and 5 SART stress mice to which SART stress had been applied for 8 days. Writhing syndromes number appeared for 15 minutes after the administration was measured. The effect was evaluated by giving 100 mg/Kg of the compounds of the present invention or DPH subcutaneously and comparing the writhing syndromes number of the mice with that of control mice.

[12] = tested on: SART stress mice; test: Inhibitory effects on increase of heart rate and elongation of QRS-time in SART stress mice; format: in vivo, mice (dd-strain male); conditions: 9th day, Average ± S.D.
Method: as §1
2. Inhibitory effects on increase of heart rate and elongation of QRS-time in stress animals:
Groups of mice each comprising 11 or 12 dd-strain male mice were divided into three groups in the same manner as above and heart rate and QRS-time were determined on the 9th day after initiation of the tests.

[13] = tested on: spontaneously hypertensive rats (SHR); test: Antihypertensive effect in spontaneously hypertensive rats; format: in vivo; conditions: 60 minutes
Method: 8. Antihypertensive effect: Groups of rats each comprising 6-9 spontaneously hypertensive rats (SHR) were used. The compounds of the present invention or DPH was given intraperitoneally. The rate of antihypertension 60 minutes after the administration was determined.

Row | Structure (SMILES) | Ach-induced contraction of the isolated deodedum ([1]; 5 mg/kg/day intraperitoneal) [%] | responders at 100 mg/kg ([3]; SART stress mice) [%] | responders at 100 mg/kg ([3]; normal mice) [%] | LD50 at 72 h ([4]; female) [mg/kg] | LD50 at 72 h ([4]; male) [mg/kg] | change in vivo at 100 mg/kg [5] [%] | change in vivo at 300 mg/kg [5] [%] | change in vivo at 100 mg/kg ([6]; SART stress mice) [%] | change in vivo at 100 mg/kg ([6]; normal mice) [%] | LD50 at 72 h ([8]; female) [mg/kg] | LD50 at 72 h ([8]; male) [mg/kg] | also measured
1 | CN1C(=O)CN=C(c2ccccc2)c2cc(Cl)ccc21 [Diazepam] | 25 ± 6 | – | – | – | – | – | – | – | – | – | – | –
2 | O=C1NC(=O)C(c2ccccc2)(c2ccc(F)cc2)N1 (stereo not drawn) [Compound 5, 5-(4-Fluorophenyl)-5-phenylhydantoin] | – | 40 | 10 | 1100 | 1180 | 31 | 38.1 | 95 | 19.8 | 810 | 840 | Antiulcerogenic effect on Shay's ulcer (operative ulcer) [2]: 20.7%; inhibition in vivo at 150 mg/kg [7]: 22.8%
3 | O=C1NC(=O)C(c2ccccc2)(c2ccc(O)cc2)N1 (stereo not drawn) [Compound 7, 5-(4-Hydroxyphenyl)-5-phenylhydantoin] | – | 50 | 40 | > 5000 | > 5000 | 112 | – | 106 | 38.1 | > 5000 | > 5000 | Analgesic effect ([9]; SART stress rats): 66.7%; Analgesic effect ([9]; normal rats): 50%; Inhibitory effect on Tremorine-induced tremor [10]: 35%; inhibition in vivo at 100 mg/kg ([11]; SART stress mice): 31.3%; inhibition in vivo at 100 mg/kg ([11]; normal mice): 3.8%; Heart rate ([12]; 50 mg/kg/day): 690 ± 56 min⁻¹; QRS-time ([12]; 50 mg/kg/day): 12.6 ± 1.5 1/1000 sec; Effect of prolongation of sleeping time ([5]; 20 mg/kg intraperitoneal): 48.0%; Effect of prolongation of sleeping time ([5]; 50 mg/kg intraperitoneal): 101.7%; Analgesic effect ([6]; SART stress mice): 76.5%; Analgesic effect ([6]; normal mice): 31.5%
4 | CN(C)CCOC(c1ccccc1)c1ccccc1 [Diphenhydramine] | – | – | – | – | – | – | – | – | – | – | – | Ach-induced contraction of the isolated deodedum ([1]; 10 mg/kg/day intraperitoneal): 25 ± 5%
5 | CCCC(C)(COC(N)=O)COC(N)=O [Meprobamate] | 31 ± 2 | – | – | – | – | – | – | – | – | – | – | –
6 | COc1ccc(C2(c3ccc(OC)c(C)c3)NC(=O)NC2=O)cc1 (stereo not drawn) [Compound 3, 5-(4-methoxy-3-methylphenyl)-5-(4-methoxyphenyl)hydantoin] | – | 40 | 30 | > 5000 | > 5000 | 76.6 | 93.9 | 91 | 47.4 | > 5000 | > 5000 | inhibition in vivo at 100 mg/kg ([11]; SART stress mice): 22%; inhibition in vivo at 100 mg/kg ([11]; normal mice): 2%; Heart rate ([12]; 100 mg/kg/day): 710 ± 83 min⁻¹; QRS-time ([12]; 100 mg/kg/day): 13.1 ± 1.7 1/1000 sec; Analgesic effect ([6]; SART stress mice): 60.3%; Analgesic effect ([6]; normal mice): 44.3%
7 | NC(=O)C1(N2CCCCC2)CCN(CCCN2c3ccccc3CCc3ccccc32)CC1 [Carpipramine] | 52 ± 6 | – | – | – | – | – | – | – | – | – | – | Ach-induced contraction of the isolated deodedum ([1]; 10 mg/kg/day intraperitoneal): 110 ± 26%
8 | COC(=O)[C@H]1[C@H]2C[C@@H]3c4[nH]c5cc(OC)ccc5c4CCN3C[C@H]2C[C@@H](OC(=O)c2cc(OC)c(OC)c(OC)c2)[C@@H]1OC [Reserpine] | – | – | – | – | – | – | – | – | – | – | – | Ach-induced contraction of the isolated deodedum ([1]; 0.1 mg/kg/day intraperitoneal): 75 ± 10%; Ach-induced contraction of the isolated deodedum ([1]; 0.5 mg/kg/day intraperitoneal): 104 ± 15%
9 | O=C1NC(=O)C(c2ccc(O)cc2)(c2ccc(O)c(Cl)c2)N1 (stereo not drawn) [Compound 33, 5-(3-Chloro-4-hydroxyphenyl)-5-(4-hydroxyphenyl)hydantoin] | – | 30 | 20 | > 5000 | > 5000 | 24.2 | 32.9 | 69.8 | 29.5 | > 5000 | > 5000 | Inhibitory effect on Tremorine-induced tremor [10]: 29%; Antiulcerogenic effect on Shay's ulcer (operative ulcer) [2]: 54.2%; inhibition in vivo at 150 mg/kg [7]: 29.8%
10 | CN(C)CCCN1c2ccccc2CCc2ccccc21 [Imipramine] | 44 ± 15 | – | – | – | – | – | – | – | – | – | – | Ach-induced contraction of the isolated deodedum ([1]; 10 mg/kg/day intraperitoneal): 100 ± 4%
11 | Cc1cc(C2(c3ccc(O)cc3)NC(=O)NC2=O)ccc1O (stereo not drawn) [Compound 30, 5-(4-Hydroxy-3-methylphenyl)-5-(4-hydroxyphenyl)hydantoin] | – | 30 | 20 | > 5000 | > 5000 | 26.6 | 97.4 | 97.5 | 59.8 | > 5000 | > 5000 | inhibition in vivo at 100 mg/kg ([11]; SART stress mice): 25.2%; inhibition in vivo at 100 mg/kg ([11]; normal mice): 3.9%; Heart rate ([12]; 100 mg/kg/day): 731 ± 71 min⁻¹; QRS-time ([12]; 100 mg/kg/day): 13.4 ± 1.1 1/1000 sec; Rate of antihypertension ([13]; 150 mg/Kg intraperitoneal): 10.9%; Rate of antihypertension ([13]; 300 mg/Kg intraperitoneal): 28.6%; Analgesic effect ([6]; SART stress mice): 43.6%; Analgesic effect ([6]; normal mice): 12.4%
12 | CN(C)CCCN1c2ccccc2Sc2ccc(Cl)cc21 [Chlorpromazine] | – | – | – | – | – | – | – | – | – | – | – | Ach-induced contraction of the isolated deodedum ([1]; 0.1 mg/kg/day intraperitoneal): 45 ± 12%; Ach-induced contraction of the isolated deodedum ([1]; 0.5 mg/kg/day intraperitoneal): 81 ± 17%
